Experimental data published in patent US10851069B2, “Compositions of crystallized hydrophobic compounds and methods of making and using same” (Massachusetts Institute of Technology, priority 2016, dated 2020).

How the values were obtained:
rat islets = assay: Live/dead islet staining of islets co-encapsulated with drug; assay type: cell-based; conditions: amorphous and crystalline forms
Protocol: Male Sprague-Dawley rats from Jackson Laboratories (Bar Harbor, Me.) weighing approximately 300 grams were used for harvesting islets. All rats were anesthetized by a 1:20 xylazine (10 mg/kg) to ketamine (150 mg/kg) injection given intraperitoneally, and the total volume of each injection was 0.4 ml-0.5 ml depending on the weight of rat. Isolation surgeries were performed as described by Lacy and Kostianovsky^2. Briefly, the bile duct was cannulated and the pancreas was distended by an in vivo injection of 0.15% Liberase (Research Grade, Roche) in RPMI 1640 media solution. Rats were sacrificed by cutting the descending aorta and the distended pancreatic organs were removed and held in 50 ml conical tubes on ice until the completion of all surgeries. All tubes were placed in a 37° C. water bath for a 30 min digestion, which was stopped by adding 10-15 ml of cold M199 media with 10% heat-inactivated fetal bovine serum (HIFBS) and lightly shaking. Digested pancreases were washed twice in the same aforementioned M199 media, filtered through a 450 μm sieve, and then suspended in a Histopaque 1077 (Sigma)/M199 media gradient and centrifuged at 1,700 RCF at 4° C. […] Purified islets were hand-counted by aliquot under a light microscope and then washed three times in sterile ix phosphate-buffered saline. […]

[1] = test system: host (mouse) alpha smooth muscle actin (αSMact); assay: qPCR of explanted capsules, host fibrosis marker; assay type: in vivo; conditions: explanted at approximately 430 (amorphous) or 460 (crystalline) days post-transplant
Description: Total RNA was isolated from fibrosed spheres (with adhered tissue and immune overgrowth, if present), liquid nitrogen snap-frozen immediately following excision, using TRIzol (Invitrogen, Carlsbad, Calif.) according to the manufacturer's instructions. In addition, to help ensure complete tissue disruption, we also employed strong mechanical disruption with a Polytron homogenizer. Thus, gene expression signatures shown throughout are proportional and representative of the entire cell population present on and/or around retrieved materials. […] Mouse (5′-[…]-3′ (SEQ. ID. No.:1); reverse: 5′-CGGGTTCCGCTGTGTAAG-3′ (SEQ. ID. No.:2)) and rat (5′-CTCTCGTGCCATGTGAACC-3′ (SEQ. ID. No.:3); reverse: 5′-[…]-3′ (SEQ. ID. No.:4)) Pdx1 primers were designed using Primer Express software (Applied Biosystems, Carlsbad, Calif., USA) and evaluated using LaserGene software (DNAStar, Madison, Wis., USA) to ensure species rat (encapsulated islet) or mouse (host)-specificity, and normalized to mouse (5′-[…]-3′ (SEQ. ID. No.:5); reverse: 5′-[…]-3′ (SEQ. ID. No.:6)) and rat (5′-[…]-3′ (SEQ. ID. No.:7); reverse: 5′-[…]-3′ (SEQ. ID. No.:8)) Beta-actin, respectively. […] Results were analyzed using the comparative CT (ΔΔCT) method as described by the manufacturer. […]

COc1ccc(COc2ccc(Cc3cnc(N)nc3N)cc2OC)cc1 [GW2580, 5-[[3-Methoxy-4-[(4-methoxyphenyl)methoxy]phenyl]methyl]-2,4-pyrimidinediamine]
toxicity to co-encapsulated islets (dead/live imaging) (rat islets): non-toxic | lower αSMact expression, crystal versus amorphous capsules [1]: 74%
